Laboratory results reported in patent US20230143612A1 (Arbutus Biopharma Corporation, priority 2020, published 2023).
pIC50: −log10 of the molar value.

target: PD-L1 His protein / PD-1 Fc protein (Homo sapiens, UniProt Q9NZQ7); test: HTRF Assay (PD-1/PD-L1 interaction); assay type: binding; conditions: PD-L1 His 6 nM, PD-1 Fc 6 nM
In short: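 HTRF: PD-L1 His (6 nM final), compound (3-fold dilutions, 20 μM to 0.001 μM final) and PD-1 Fc (6 nM final) preincubated 15 min at room temperature. Anti-human IgG-XL665 and anti-6HIS Tb cryptate (mixed at 6.7 nM and 0.35 nM) then added for 1 h at room temperature before reading.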

Sequence of PD-L1 His protein / PD-1 Fc protein (Q9NZQ7 19-238 limits assumed): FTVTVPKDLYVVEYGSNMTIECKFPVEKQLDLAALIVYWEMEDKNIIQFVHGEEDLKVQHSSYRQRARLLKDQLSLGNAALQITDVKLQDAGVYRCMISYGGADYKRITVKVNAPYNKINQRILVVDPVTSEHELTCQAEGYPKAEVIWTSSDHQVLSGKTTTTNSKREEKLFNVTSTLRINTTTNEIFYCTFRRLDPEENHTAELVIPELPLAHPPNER

Going from `COc1nc(-c2cccc(-c3cccc(-c4ccn5c(=O)c(CN6CC[C@H](C(=O)O)C6)cnc5c4)c3Cl)c2Cl)ccc1CN1CC(CO)C1` [Example 83, (S)-1-((8-(2,2′-Dichloro-3′-(5-((3-(hydroxymethyl)azetidin-1-yl)methyl)-6-methoxypyridin-2-yl)-[1,1′-biphenyl]-3-yl)-4-oxo-4H-pyrido[1,2-a]pyrimidin-3-yl)methyl)pyrrolidine-3-carboxylic acid] to `CNC(=O)C1CN(Cc2cnc3cc(-c4cccc(-c5cccc(-c6ccc(CNC[C@@H]7CCC(=O)N7)c(OC)n6)c5Cl)c4Cl)ccn3c2=O)C1` [Example 255, (S)-1-((8-(2,2′-Dichloro-3′-(6-methoxy-5-((((5-oxopyrrolidin-2-yl)methyl)amino)methyl)pyridin-2-yl)-[1,1′-biphenyl]-3-yl)-4-oxo-4H-pyrido[1,2-a]pyrimidin-3-yl)methyl)-N-methylazetidine-3-carboxamide], the pIC50 rises from 9.40 to 10.00 (0.60 log units).

Compared with `COc1nc(-c2cccc(-c3cccc(-c4ccc5c(n4)CCN(C[C@@H]4CCC(=O)N4)C5)c3Cl)c2Cl)ccc1CNC[C@@H]1CCC(=O)N1` [Example 426, (S)-5-((((6-(2,2′-Dichloro-3′-(6-(((S)-5-oxopyrrolidin-2-yl)-methyl)-5,6,7,8-tetrahydro-1,6-naphthyridin-2-yl)-[1,1′-biphenyl]-3-yl)-2-methoxypyridin-3-yl)-methyl)-amino)-methyl)pyrrolidin-2-one], `COc1nc(-c2cccc(-c3cccc(-c4cc5c(cn4)c(CNC[C@@H]4CCC(=O)N4)cn5C)c3Cl)c2Cl)ccc1CNC[C@@H]1CCC(=O)N1` [Example 402, (S)-5-((((6-(2,2′-Dichloro-3′-(1-methyl-3-(((((S)-5-oxopyrrolidin-2-yl)methyl)amino)methyl)-1H-pyrrolo[3,2-c]pyridin-6-yl)-[1,1′-biphenyl]-3-yl)-2-methoxypyridin-3-yl)methyl)amino)methyl)pyrrolidin-2-one] is 2.70 log units lower in pIC50: 10.00 for the first, 7.30 for the second. The first is the more potent here.

Compared with `COc1nc(-c2cccc(-c3cccc(-c4ccc5nc(C(=O)NCCN)cn5n4)c3Cl)c2Cl)ccc1CNC[C@@H]1CCC(=O)N1` [Example 438, N-(2-Aminoethyl)-6-[2-chloro-3-[2-chloro-3-[6-methoxy-5-[[[(2S)-5-oxopyrrolidin-2-yl]methylamino]methyl]-2-pyridyl]phenyl]phenyl]imidazo[1,2-b]pyridazine-2-carboxamide], `COc1nc(-c2cccc(-c3cccc(-c4cc5c(=O)n(C)c(CNCC(=O)O)nn5c4)c3Cl)c2Cl)ccc1CNC[C@@H]1CCC(=O)N1` [Example 487, 2-[[6-[2-Chloro-3-[2-chloro-3-[6-methoxy-5-[[[(2S)-5-oxopyrrolidin-2-yl]methylamino]methyl]-2-pyridyl]phenyl]phenyl]-3-methyl-4-oxo-pyrrolo[2,1-f][1,2,4]triazin-2-yl]methylamino]acetic acid] is 2.15 log units higher in pIC50: 7.85 for the first, 10.00 for the second. The second is the more potent here.

Compared with `Cc1c(-c2ccn3c(=O)c(CNCCO)cnc3c2)cccc1-c1cccc(-c2ccn3c(=O)c(CNCCO)cnc3c2)c1C` [Example 15, 8,8′-(2,2′-Dimethyl-[1,1′-biphenyl]-3,3′-diyl)bis(3-(((2-hydroxyethyl)amino)methyl)-4H-pyrido[1,2-a]pyrimidin-4-one)], `COc1nc(-c2cccc(-c3cccc(-c4ccn5c(=O)c(CN[C@@H](CO)C(=O)O)cnc5c4)c3Cl)c2Cl)ccc1CNCCO` [Example 191, ((8-(2,2′-Dichloro-3′-(5-(((2-hydroxyethyl)amino)methyl)-6-methoxypyridin-2-yl)-[1,1′-biphenyl]-3-yl)-4-oxo-4H-pyrido[1,2-a]pyrimidin-3-yl)methyl)-L-serine] is 2.78 log units higher in pIC50: 7.22 for the first, 10.00 for the second. The second is the more potent here.

Going from `COc1nc(-c2cccc(-c3cccc(-c4cc5c(=O)n(C)c(CNCCC(F)F)nn5c4)c3Cl)c2Cl)ccc1CNC[C@@H]1CCC(=O)N1` [compound 465, (S)-6-(2,2′-Dichloro-3′-(6-methoxy-5-((((5-oxopyrrolidin-2-yl)methyl)amino)methyl)pyridin-2-yl)-[1,1′-biphenyl]-3-yl)-2-(((3,3-difluoropropyl)amino)methyl)-3-methylpyrrolo[2,1-f][1,2,4]triazin-4(3H)-one] to `COc1nc(-c2cccc(-c3cccc(-c4cc5c(=O)n(C)c(CNC[C@@H](O)CC(=O)N(C)C)nn5c4)c3Cl)c2Cl)ccc1CNC[C@@H]1CCC(=O)N1` [Example 481, (S)-4-(((6-(2,2′-Dichloro-3′-(6-methoxy-5-(((((S)-5-oxopyrrolidin-2-yl)methyl)amino)methyl)pyridin-2-yl)-[1,1′-biphenyl]-3-yl)-3-methyl-4-oxo-3,4-dihydropyrrolo[2,1-f][1,2,4]triazin-2-yl)methyl)amino)-3-hydroxy-N,N-dimethylbutanamide], the pIC50 falls from 7.85 to 7.38 (0.47 log units).

Compared with `COc1nc(-c2cccc(-c3cccc(-c4ccn5c(=O)c(CNC6CNC(=O)C6)cnc5c4)c3Cl)c2Cl)ccc1CNC1CNC(=O)C1` (mixture of isomers) [Example 63, 8-(2,2′-Dichloro-3′-(6-methoxy-5-(((5-oxopyrrolidin-3-yl)amino)methyl)pyridin-2-yl)-[1,1′-biphenyl]-3-yl)-3-(((5-oxopyrrolidin-3-yl)amino)methyl)-4H-pyrido[1,2-a]pyrimidin-4-one], `COc1nc(-c2cccc(-c3cccc(-c4ccn5c(=O)c(CNCC6CCCC(=O)N6)cnc5c4)c3Cl)c2Cl)ccc1CNC[C@@H]1CCC(=O)N1` (mixture of isomers) [Example 206, 8-(2,2′-Dichloro-3′-(6-methoxy-5-(((((S)-5-oxopyrrolidin-2-yl)methyl)amino)methyl)pyridin-2-yl)-[1,1′-biphenyl]-3-yl)-3-((((6-oxopiperidin-2-yl)methyl)amino)methyl)-4H-pyrido[1,2-a]pyrimidin-4-one] is 0.97 log units lower in pIC50: 8.82 for the first, 7.85 for the second. The first is the more potent here.

Compared with `COc1nc(-c2cccc(-c3cccc(-c4ccn5c(=O)c(CN6CC(C(C)(C)O)C6)cnc5c4)c3Cl)c2Cl)ccc1CNC[C@@H]1CCC(=O)N1` [Example 111, (S)-8-(2,2′-Dichloro-3′-(6-methoxy-5-((((5-oxopyrrolidin-2-yl)methyl)amino)methyl)pyridin-2-yl)-[1,1′-biphenyl]-3-yl)-3-((3-(2-hydroxypropan-2-yl)azetidin-1-yl)methyl)-4H-pyrido[1,2-a]pyrimidin-4-one], `COc1nc(-c2cccc(-c3cccc(-c4ccn5c(=O)c(CNCC6(O)CC6)cnc5c4)c3Cl)c2Cl)ccc1CNC[C@@H]1CCC(=O)N1` [Example 234, (S)-8-(2,2′-Dichloro-3′-(6-methoxy-5-((((5-oxopyrrolidin-2-yl)methyl)amino)methyl)pyridin-2-yl)-[1,1′-biphenyl]-3-yl)-3-((((1-hydroxycyclopropyl)methyl)amino)methyl)-4H-pyrido[1,2-a]pyrimidin-4-one] is 1.81 log units higher in pIC50: 8.19 for the first, 10.00 for the second.

`COc1nc(-c2cccc(-c3cccc(-c4ccc5nc(CN(C)CCO)cn5n4)c3Cl)c2Cl)ccc1CN(C)CCO` [Example 339, 2-[[6-[2-Chloro-3-[2-chloro-3-[2-[[2-hydroxyethyl(methyl)amino]methyl]imidazo[1,2-b]pyridazin-6-yl]phenyl]phenyl]-2-methoxy-3-pyridyl]methyl-methyl-amino]etanol] gave a pIC50 of 7.59.
